Tests used:
NSCLC tumor PDX models = test: tumor response (mRECIST) of treatment-naïve NSCLC patient-derived xenograft (PDX) models in mice; type: in vivo; details: 25 mg/kg/day for 3 weeks, NOD/SCID or BALB/c nude mice
From the text: FIG. 9 depicts a method for further validation of sensitivity predictions using patient-dervied xenograft (PDX) models (HuBase™, CrownBio®). Treatment naïve PDX tumors were subcutaneously implanted into female non-obese diabetic/severe combined immunodeficient (NOD/SCID) or BALB/c nude mice in triplicate for a total of 96 mice (n=48 treated; 48 vehicle-treated controls). Mice were assigned labels. After implanted tumors reached a size of 200 mm^3, mice were randomized into treatment and control groups. Treated mice were dosed with 25 mg/kg/day of osimertinib for 3 weeks. Changes in tumor volume were calculated. For each PDX model, tumor growth for treatment groups and control groups was assessed.
To validate the predictions of tumor sensitivity/insensitivity, as described above, data were acquired using treatment-naïve NSCLC tumor (patient-derived xenograft) PDX models available via HuBase™ (CrownBio®, an online database offering complete genomic annotation of the PDX models).
The current FDA label for osimertinib (FIG. 7) was used to assign PDX tumors to “FDA ON” or “FDA OFF” label groups based on the presence or absence of DNA alterations indicated for this drug (i.e., L858R mutation, T790M mutation, or exon 19 deletion). PDX tumors were also assigned label groups based on sensitivity predictions, as described above. Tumors labeled “Zephyr ON” included those that were predicted to be osimertinib-sensitive and samples labeled “Zephyr OFF” include those predicted to be osimertinib-insensitive. PDX models were then divided into four cohorts: FDA ON/ZEPHYR ON; FDA OFF/ZEPHYR ON; FDA ON/ZEPHYR OFF; and FDA OFF/ZEPHYR OFF.
Treatment naïve PDX tumors were subcutaneously implanted into female NOD/SCID or BALB/c nude mice in triplicate for a total of 96 mice (n=48 treated; 48 vehicle-treated controls). After implanted tumors reached a size of 200 mm^3, mice were randomized into treatment and control groups. Treated mice were dosed with 25 mg/kg/day of osimertinib for 3 weeks. Changes in tumor volume were calculated as previously described, e.g., in Gao et al., Nat. Med. 21, 1318-1325 (2015). For each PDX model, tumor growth for treatment groups and control groups (vehicle only) was assessed.
This final cohort represents an expansion of the patient population that can be successfully treated with osimertinib that is not captured by the existing FDA label.

NSCLC = test: overall survival of osimertinib-treated NSCLC patients (AACR Project GENIE cohort), predicted sensitive vs. less sensitive; type: in vivo, human; details: 334 osimertinib-treated patients
From the text: FIG. 8 depicts a Kaplan-Meier plot showing corresponding overall survival (OS) measurements of patients predicted, according to methods of the present disclosure, to be sensitive vs. insensitive to ismertinib. NSCLC patients predicted to be sensitive experienced a 35-month increased median OS than the predicted less sensitive group (log-rank test p-value<10-5; HR=1.57 (1.43-1.78, 95% CI)).
A clinicogenomics cohort from AACR Project GENIE, which included 334 patients treated with osimertinib, was used to validate the predictive ability of the methods disclosed herein. Data obtained in real-world settings were used to assign drug sensitivity predictions to individual patients in a RWD cohort of NSCLC patients treated with osimertinib. FIG. 8, a Kaplan-Meier plot, depicts overall survival (OS) measurements corresponding to patients predicted to be sensitive vs. insensitive. NSCLC patients predicted to be sensitive experienced a 35-month increased median OS than the NSCLC patients predicted to be less sensitive (log-rank test p-value<10-5; HR=1.57 (1.43-1.78, 95% CI)).

cancer cell lines = test: area under the drug response curve (AUC) of cancer cell lines exposed to osimertinib; type: cell-based; details: AUC of 1 = growth equal to growth without osimertinib
From the text: FIG. 4D depicts a boxplot of area under the drug response curve values for cell lines partitioned into a first group (sensitive) and the second group (non-sensitive) of cancer cell lines, by a machine learning model disclosed herein.
FIG. 4D depicts a graph of a box and whisker plot of area under the drug response curve (AUC) values for the first group (sensitive) and the second group (non-sensitive) of cancer cell lines. […] Furthermore, instead of generating the machine learning model wherein the model learns a point estimate for each of the parameters of the partitioning matrix (e.g., two or more genes), the machine learning model may be generated in a Bayesian context, wherein the machine learning model learns the posterior parameter distribution for the parameters of the partitioning matrix, the posterior parameter distribution may be approximately gaussian. For example, when the parameters of the partitioning matrix include 7 distinct genes, the machine learning model may learn the posterior parameter distribution for 8 different parameters (e.g., 7 genes plus an intercept term). In some embodiments, the posterior parameter distribution may have a confidence region of about 90%. The graphical representation of the confidence region of the posterior parameter distribution may depict ellipse enclosing a high-density region.

With `C=CC(=O)Nc1cc(Nc2nccc(-c3cn(C)c4ccccc34)n2)c(OC)cc1N(C)CCN(C)C` [osimertinib] the “tumor response by mRECIST” value (NSCLC tumor PDX models; FDA OFF/ZEPHYR OFF cohort) was “disease progression”, the “tumor response by mRECIST” value (NSCLC tumor PDX models; FDA OFF/ZEPHYR ON cohort (no on-label EGFR alteration, predicted sensitive)) was “partial to complete response” and the “tumor response by mRECIST” value (NSCLC tumor PDX models; FDA ON/ZEPHYR OFF cohort) was “a mix of complete responses and disease progression”. The “tumor response by mRECIST” value (NSCLC tumor PDX models; FDA ON/ZEPHYR ON cohort) was “complete response”, the “increase in median overall survival (OS), predicted sensitive vs. predicted less sensitive” value (NSCLC; real-world data, log-rank test p-value<10-5) was 35 month and the “hazard ratio (HR) for overall survival” value (NSCLC; 95% CI in brackets) was 1.57 (1.43-1.78, 95% CI). The “average AUC (area under the drug response curve)” value (cancer cell lines; first group (predicted sensitive) of cancer cell lines) was “about 0.9” and the “average AUC (area under the drug response curve)” value (cancer cell lines; second group (predicted non-sensitive) of cancer cell lines) was “about 0.95”.
